Reference: EPA's CvTdb concentration-time database

Legend:
Test in all cases: concentration in plasma after dosing
Rat [1] = conditions: dosed: Bromochloroacetic acid, 10 mg/kg, oral, Male, Harlan Sprague Dawley
Rat [2] = conditions: dosed: Bromochloroacetic acid, 10 mg/kg, oral, Male, Harlan Sprague Dawley; remark: listed apart in the source
Rat [3] = conditions: dosed: Bromochloroacetic acid, 10 mg/kg, oral, Male, Harlan Sprague Dawley; remark: listed apart in the source
Rat [4] = conditions: dosed: Bromochloroacetic acid, 10 mg/kg, oral, Male, Harlan Sprague Dawley; remark: listed apart in the source
Rat [5] = conditions: dosed: Bromochloroacetic acid, 10 mg/kg, oral, Male, Harlan Sprague Dawley; remark: listed apart in the source
Rat [6] = conditions: 0.75 h; dosed: Bromochloroacetic acid; 40 mg/kg; oral; Female; Harlan Sprague Dawley
Rat [7] = conditions: dosed: Bromochloroacetic acid, 40 mg/kg, oral, Female, Harlan Sprague Dawley
Rat [8] = conditions: dosed: Bromochloroacetic acid, 40 mg/kg, oral, Female, Harlan Sprague Dawley; remark: listed apart in the source
Rat [9] = conditions: 5 min; dosed: Bromochloroacetic acid; 40 mg/kg; oral; Female; Harlan Sprague Dawley
Rat [10] = conditions: dosed: Bromochloroacetic acid, 40 mg/kg, oral, Female, Harlan Sprague Dawley; remark: listed apart in the source
Rat [11] = conditions: dosed: Bromochloroacetic acid, 10 mg/kg, oral, Male, Harlan Sprague Dawley; remark: listed apart in the source
Rat [12] = conditions: dosed: Bromochloroacetic acid, 40 mg/kg, oral, Female, Harlan Sprague Dawley; remark: listed apart in the source
Rat [13] = conditions: dosed: Bromochloroacetic acid, 40 mg/kg, oral, Female, Harlan Sprague Dawley; remark: listed apart in the source
Rat [14] = conditions: dosed: Bromochloroacetic acid, 40 mg/kg, oral, Female, Harlan Sprague Dawley; remark: listed apart in the source
Rat [15] = conditions: 0.75 h; dosed: Bromochloroacetic acid; 40 mg/kg; oral; Female; Harlan Sprague Dawley; remark: listed apart in the source
Rat [16] = conditions: 20 min; dosed: Bromochloroacetic acid; 10 mg/kg; oral; Male; Harlan Sprague Dawley
Rat [17] = conditions: dosed: Bromochloroacetic acid, 10 mg/kg, oral, Male, Harlan Sprague Dawley; remark: listed apart in the source
Rat [18] = conditions: dosed: Bromochloroacetic acid, 40 mg/kg, oral, Female, Harlan Sprague Dawley; remark: listed apart in the source
Rat [19] = conditions: dosed: Bromochloroacetic acid, 10 mg/kg, oral, Male, Harlan Sprague Dawley; remark: listed apart in the source
Rat [20] = conditions: 20 min; dosed: Bromochloroacetic acid; 10 mg/kg; oral; Male; Harlan Sprague Dawley; remark: listed apart in the source
Rat [21] = conditions: 0.75 h; dosed: Bromochloroacetic acid; 40 mg/kg; oral; Female; Harlan Sprague Dawley; remark: listed apart in the source
Rat [22] = conditions: dosed: Bromochloroacetic acid, 10 mg/kg, oral, Male, Harlan Sprague Dawley; remark: listed apart in the source
Rat [23] = conditions: dosed: Bromochloroacetic acid, 40 mg/kg, oral, Female, Harlan Sprague Dawley; remark: listed apart in the source
Rat [24] = conditions: dosed: Bromochloroacetic acid, oral, Harlan Sprague Dawley
Rat [25] = conditions: dosed: Bromochloroacetic acid, 10 mg/kg, oral, Male, Harlan Sprague Dawley; remark: listed apart in the source
Rat [26] = conditions: dosed: Bromochloroacetic acid, 10 mg/kg, oral, Male, Harlan Sprague Dawley; remark: listed apart in the source
Rat [27] = conditions: dosed: Bromochloroacetic acid, 10 mg/kg, oral, Male, Harlan Sprague Dawley; remark: listed apart in the source
Rat [28] = conditions: 20 min; dosed: Bromochloroacetic acid; 10 mg/kg; oral; Male; Harlan Sprague Dawley; remark: listed apart in the source
Rat [29] = conditions: dosed: Bromochloroacetic acid, 10 mg/kg, oral, Male, Harlan Sprague Dawley; remark: listed apart in the source
Rat [30] = conditions: dosed: Bromochloroacetic acid, 40 mg/kg, oral, Female, Harlan Sprague Dawley; remark: listed apart in the source
Rat [31] = conditions: dosed: Bromochloroacetic acid, 40 mg/kg, oral, Female, Harlan Sprague Dawley; remark: listed apart in the source
Rat [32] = conditions: dosed: Bromochloroacetic acid, 10 mg/kg, oral, Male, Harlan Sprague Dawley; remark: listed apart in the source
Rat [33] = conditions: dosed: Bromochloroacetic acid, 10 mg/kg, oral, Male, Harlan Sprague Dawley; remark: listed apart in the source
Rat [34] = conditions: 0.25 h; dosed: Bromochloroacetic acid; 10 mg/kg; oral; Male; Harlan Sprague Dawley
Rat [35] = conditions: dosed: Bromochloroacetic acid, 40 mg/kg, oral, Female, Harlan Sprague Dawley; remark: listed apart in the source
Rat [36] = conditions: dosed: Bromochloroacetic acid, 10 mg/kg, oral, Male, Harlan Sprague Dawley; remark: listed apart in the source
Rat [37] = conditions: dosed: Bromochloroacetic acid, 40 mg/kg, oral, Female, Harlan Sprague Dawley; remark: listed apart in the source
Rat [38] = conditions: 0.75 h; dosed: Bromochloroacetic acid; 40 mg/kg; oral; Female; Harlan Sprague Dawley; remark: listed apart in the source
Rat [39] = conditions: dosed: Bromochloroacetic acid, 40 mg/kg, oral, Female, Harlan Sprague Dawley; remark: listed apart in the source
Rat [40] = conditions: dosed: Bromochloroacetic acid, 40 mg/kg, oral, Female, Harlan Sprague Dawley; remark: listed apart in the source
Rat [41] = conditions: 0.25 h; dosed: Bromochloroacetic acid; 10 mg/kg; oral; Male; Harlan Sprague Dawley; remark: listed apart in the source
Rat [42] = conditions: 20 min; dosed: Bromochloroacetic acid; 10 mg/kg; oral; Male; Harlan Sprague Dawley; remark: listed apart in the source
Rat [43] = conditions: 20 min; dosed: Bromochloroacetic acid; 10 mg/kg; oral; Male; Harlan Sprague Dawley; remark: listed apart in the source
Rat [44] = conditions: dosed: Bromochloroacetic acid, 10 mg/kg, oral, Male, Harlan Sprague Dawley; remark: listed apart in the source
Rat [45] = conditions: 0.75 h; dosed: Bromochloroacetic acid; 40 mg/kg; oral; Female; Harlan Sprague Dawley; remark: listed apart in the source
Rat [46] = conditions: dosed: Bromochloroacetic acid, 40 mg/kg, oral, Female, Harlan Sprague Dawley; remark: listed apart in the source
Rat [47] = conditions: dosed: Bromochloroacetic acid, 10 mg/kg, oral, Male, Harlan Sprague Dawley; remark: listed apart in the source
Rat [48] = conditions: dosed: Bromochloroacetic acid, 40 mg/kg, oral, Female, Harlan Sprague Dawley; remark: listed apart in the source

O=C(O)C(Cl)Br (stereo not given) [Bromochloroacetic acid]
concentration in plasma (Rat [1]; 2 min): 216 ng/mL
concentration in plasma (Rat [1]; 0.75 h): 485 ng/mL
concentration in plasma (Rat [2]; 5 min): 255 ng/mL
concentration in plasma (Rat [2]; 1 h): 164 ng/mL
concentration in plasma (Rat [3]; 2 min): 80.1 ng/mL
concentration in plasma (Rat [3]; 0.75 h): 284 ng/mL
concentration in plasma (Rat [4]; 5 min): 362 ng/mL
concentration in plasma (Rat [4]; 1 h): 224 ng/mL
concentration in plasma (Rat [5]; 5 min): 423 ng/mL
concentration in plasma (Rat [5]; 1 h): 196 ng/mL
concentration in plasma (Rat [6]): 10700 ng/mL
concentration in plasma (Rat [7]; 0.25 h): 5810 ng/mL
concentration in plasma (Rat [7]; 3 h): 2170 ng/mL
concentration in plasma (Rat [8]; 10 min): 2220 ng/mL
concentration in plasma (Rat [8]; 2 h): 3920 ng/mL
concentration in plasma (Rat [9]): 2990 ng/mL
concentration in plasma (Rat [10]; 0.25 h): 3060 ng/mL
concentration in plasma (Rat [10]; 3 h): 1880 ng/mL
concentration in plasma (Rat [11]; 2 min): 104 ng/mL
concentration in plasma (Rat [11]; 0.75 h): 218 ng/mL
concentration in plasma (Rat [12]; 2 min): 536 ng/mL
concentration in plasma (Rat [12]; 1 h): 7660 ng/mL
concentration in plasma (Rat [13]; 10 min): 2240 ng/mL
concentration in plasma (Rat [13]; 2 h): 4710 ng/mL
concentration in plasma (Rat [14]; 2 min): 564 ng/mL
concentration in plasma (Rat [14]; 1 h): 9330 ng/mL
concentration in plasma (Rat [15]): 10300 ng/mL
concentration in plasma (Rat [16]): 733 ng/mL
concentration in plasma (Rat [17]; 10 min): 241 ng/mL
concentration in plasma (Rat [17]; 1.5 h): 96.2 ng/mL
concentration in plasma (Rat [18]; 5 min): 4130 ng/mL
concentration in plasma (Rat [18]; 1.5 h): 7410 ng/mL
concentration in plasma (Rat [19]; 0.25 h): 727 ng/mL
concentration in plasma (Rat [19]; 2 h): 136 ng/mL
concentration in plasma (Rat [20]): 663 ng/mL
concentration in plasma (Rat [21]): 6170 ng/mL
concentration in plasma (Rat [22]; 0.25 h): 643 ng/mL
concentration in plasma (Rat [22]; 2 h): 120 ng/mL
concentration in plasma (Rat [23]; 5 min): 2540 ng/mL
concentration in plasma (Rat [23]; 1.5 h): 4490 ng/mL
concentration in plasma (Rat [24]; 2 min, 10 mg/kg, Male): 83.2 ng/mL
concentration in plasma (Rat [24]; 5 min, 10 mg/kg, Male): 214 ng/mL
concentration in plasma (Rat [24]; 5 min, 40 mg/kg, Female): 1770 ng/mL
concentration in plasma (Rat [24]; 10 min, 10 mg/kg, Male): 168 ng/mL
concentration in plasma (Rat [24]; 10 min, 40 mg/kg, Female): 3420 ng/mL
concentration in plasma (Rat [24]; 0.25 h, 10 mg/kg, Male): 543 ng/mL
concentration in plasma (Rat [24]; 0.25 h, 40 mg/kg, Female): 5910 ng/mL
concentration in plasma (Rat [24]; 20 min, 10 mg/kg, Male): 364 ng/mL
concentration in plasma (Rat [24]; 20 min, 40 mg/kg, Female): 4390 ng/mL
concentration in plasma (Rat [24]; 0.75 h, 10 mg/kg, Male): 177 ng/mL
concentration in plasma (Rat [24]; 0.75 h, 40 mg/kg, Female): 7630 ng/mL
concentration in plasma (Rat [24]; 1 h, 10 mg/kg, Male): 187 ng/mL
concentration in plasma (Rat [24]; 1 h, 40 mg/kg, Female): 6900 ng/mL
concentration in plasma (Rat [24]; 1.5 h, 10 mg/kg, Male): 166 ng/mL
concentration in plasma (Rat [24]; 1.5 h, 40 mg/kg, Female): 4860 ng/mL
concentration in plasma (Rat [24]; 2 h, 10 mg/kg, Male): 95.5 ng/mL
concentration in plasma (Rat [24]; 2 h, 40 mg/kg, Female): 2940 ng/mL
concentration in plasma (Rat [24]; 3 h, 40 mg/kg, Female): 1990 ng/mL
concentration in plasma (Rat [24]; 4 h, 40 mg/kg, Female): 3160 ng/mL
concentration in plasma (Rat [25]; 5 min): 383 ng/mL
concentration in plasma (Rat [25]; 1 h): 299 ng/mL
concentration in plasma (Rat [26]; 2 min): 71.7 ng/mL
concentration in plasma (Rat [26]; 0.75 h): 283 ng/mL
concentration in plasma (Rat [27]; 0.25 h): 545 ng/mL
concentration in plasma (Rat [27]; 3 h): 88.7 ng/mL
concentration in plasma (Rat [28]): 508 ng/mL
concentration in plasma (Rat [29]; 10 min): 494 ng/mL
concentration in plasma (Rat [29]; 1.5 h): 107 ng/mL
concentration in plasma (Rat [30]; 20 min): 3310 ng/mL
concentration in plasma (Rat [30]; 4 h): 2010 ng/mL
concentration in plasma (Rat [31]; 2 min): 484 ng/mL
concentration in plasma (Rat [31]; 1 h): 8650 ng/mL
concentration in plasma (Rat [32]; 10 min): 516 ng/mL
concentration in plasma (Rat [32]; 1.5 h): 238 ng/mL
concentration in plasma (Rat [33]; 10 min): 475 ng/mL
concentration in plasma (Rat [33]; 1.5 h): 122 ng/mL
concentration in plasma (Rat [34]): 476 ng/mL
concentration in plasma (Rat [35]; 20 min): 5740 ng/mL
concentration in plasma (Rat [35]; 6 h): 201 ng/mL
concentration in plasma (Rat [36]; 10 min): 322 ng/mL
concentration in plasma (Rat [36]; 1.5 h): 155 ng/mL
concentration in plasma (Rat [37]; 5 min): 2780 ng/mL
concentration in plasma (Rat [37]; 1.5 h): 6540 ng/mL
concentration in plasma (Rat [38]): 11800 ng/mL
concentration in plasma (Rat [39]; 4 h): 1060 ng/mL
concentration in plasma (Rat [39]; 6 h): 172 ng/mL
concentration in plasma (Rat [40]; 2 min): 984 ng/mL
concentration in plasma (Rat [40]; 1 h): 5710 ng/mL
concentration in plasma (Rat [41]): 576 ng/mL
concentration in plasma (Rat [42]): 544 ng/mL
concentration in plasma (Rat [43]): 521 ng/mL
concentration in plasma (Rat [44]; 5 min): 210 ng/mL
concentration in plasma (Rat [44]; 1 h): 201 ng/mL
concentration in plasma (Rat [45]): 9710 ng/mL
concentration in plasma (Rat [46]; 2 min): 396 ng/mL
concentration in plasma (Rat [46]; 1 h): 7500 ng/mL
concentration in plasma (Rat [47]; 2 min): 104 ng/mL
concentration in plasma (Rat [47]; 0.75 h): 225 ng/mL
concentration in plasma (Rat [48]; 5 min): 1440 ng/mL
concentration in plasma (Rat [48]; 1.5 h): 5290 ng/mL
